Assay results taken from patent US20230127906A1, “FORMULATIONS FOR EXTENDING LIFESPAN AND HEALTHSPAN” (Buck Institute for Research on Aging, priority 2017, published 2023).
Entries after “also recorded” stand apart in the source; their conditions may differ.

Tests used:
C57BL/6J mice = test: 31-item clinical frailty index in aged mice (total score and individual metrics); type: in vivo; conditions: for alopecia scores (hair loss): four month treatment starting at 18 months of age, FIG. 35; for piloerection: four month treatment, FIG. 37
Excerpt: C57BL/6J mice of both sexes are aged in group caging in an approved animal facility. Mice are maintained on a 12-hour light/dark cycle, with free access to food and water. In general, initiation of interventions occurs in mice after 12 months of age and is maintained throughout the lifespan of the mice. However, short term or periodic interventional strategies may also be tested.
Mice are randomly assigned to either treatment or control group, and administered compositions of active agents or placebo (control) in food for a sufficient treatment period to observe effects on frailty characteristics.
Mice are periodically evaluated on the 31-item clinical frailty index previously described herein. This was first reported by Whitehead et al. (Journals of Gerontology: BIOLOGICAL SCIENCES, 69:621-632; 2014). This has been used in studies recently as a valuable metric of mouse frailty that involves non-invasive scoring ideal for longitudinal studies and corresponds well with the onset of human frailty (Rockwood et al., Scientific Reports, 7, 43068, 2017).
The 31 point metric for assessment of animal frailty is included in the following table:
For all individual frailty metrics shown, a similar strategy was used to assess frailty score. Using a double blind method, scorers were asked to assess the relative score of each animal either as 0 (healthy), 0.5 (moderately unhealthy) and 1 (unhealthy). For total frailty, all 31 metrics are added and divided by 31. For cohort 2, we report the total frailty score simply as the sum of all 31 metrics without normalization.
Loss of fur color and appearance of grey hair is used interchangeably.
Alopecia or hair loss is used interchangeably.
Kyphosis is a measure of exaggerated outward curvature of the lower cervical/thoracic vertebral column, and can reflect either loss of bone density or increased muscle weakness.
Tremors are a measure of involuntary shaking at rest or during movement. Dermatitis is a routine occurrence in aging C57/B16 mice.
Piloerection is defined as involuntary hair bristling and can be thought of similarly to “goose bumps.” This increases with age and can be triggered by coldness, reflecting an inability of the mice to maintain body temperature.
Mice are randomly assigned to either treatment or control group, and administered compositions comprising Ca-AKG or placebo in food for a sufficient treatment period to observe effects on frailty characteristics.
Mice are periodically evaluated on the 31-item clinical frailty index previously described herein.

inflammatory cytokines = test: Inflammatory cytokine levels in aged mice; type: in vivo; conditions: three month treatment starting at 18 months of age, animals at 21 months, Cohort 2, FIG. 24
IMR-90 fibroblasts = test: Cell senescence assay, irradiated cells, β-galactosidase; type: cell-based; conditions: cells pre-treated prior to irradiation, FIG. 12
Procedure: To measure the effects of Ca-AKG on cell senescence, IMR-90 fibroblasts in culture were exposed to gamma-irradiation either after pretreatment with AKG or prior to (post) treatment with Ca-AKG. Cell senescence was measured by β-Galactosidase fluorescence.

Row | Compound | alopecia scores (hair loss) (C57BL/6J mice; female mice) | piloerection (C57BL/6J mice; female mice) | grey hair (C57BL/6J mice; female mice, measured at 23 months of life, Cohort 1, FIG. 18) | hair loss (C57BL/6J mice; relative to control mice, Cohort 1, FIG. 20, 21) | kyphosis (C57BL/6J mice; relative to control mice, Cohort 1, FIG. 22) | tremors (C57BL/6J mice; relative to control mice, Cohort 1, FIG. 23) | coat graying / grey hair (C57BL/6J mice; vs placebo/control mice, Cohort 1, FIG. 11, 19, 20) | levels of inflammatory cytokines (inflammatory cytokines) | cell senescence, senescence-associated β-galactosidase (beta gal) (IMR-90 fibroblasts) | fur color (coat color) (C57BL/6J mice; female mice, four months treatment starting at 18 months of age, FIG. 36) | frailty scores (frailty index) (C57BL/6J mice; female mice, two months of treatment, Cohort 2, FIG. 10A) | kyphosis index (C57BL/6J mice; male and female mice combined, two months treatment starting at 18 months of age, FIG. 34) | frailty scores (frailty index) (C57BL/6J mice; male mice, 2 months of treatment, Cohort 2, FIG. 10C)
1 | CCCCCCCCCCCCCCCC(=O)OC/C=C(C)/C=C/C=C(C)/C=C/C1=C(C)CCCC1(C)C [RP, retinyl palmitate] | neither Ca-AKG nor RP had significant effects on their own | Neither compound alone had an effect | – | – | – | – | – | – | – | – | – | – | –
2 | O=C([O-])CCC(=O)C(=O)[O-].[Ca+2] [Ca-AKG, calcium α-ketoglutarate] | neither Ca-AKG nor RP had significant effects on their own | Neither compound alone had an effect | reduction in grey hair | reduced hair loss; also recorded: reduction in hair loss | reduction in kyphosis | reduction in tremors | dramatically reduced; also recorded: less grey hair than the control mouse; also recorded: less gray hair | prevents, or in some cases even reverses, the increase in levels of inflammatory cytokines | protected cells from irradiation-induced senescence; also recorded: decreases relative to control | – | – | – | –
3 | C=C1CC[C@H](O)C/C1=C/C=C1\CCC[C@]2(C)[C@@H]([C@H](C)CCCC(C)C)CC[C@@H]12 [vitamin D3] | sufficient to reduce alopecia | – | – | – | – | – | – | – | – | younger coat color | lower frailty | reduce the kyphosis index significantly | no significant reduction in frailty
